Source: BindingDB's records for PubMed 39026645 (Tianjin University)

Biological target: T1, Polyphenol oxidase 4 (Agaricus bisporus, UniProt C7FF05)
T1 sequence (C7FF05 whole entry): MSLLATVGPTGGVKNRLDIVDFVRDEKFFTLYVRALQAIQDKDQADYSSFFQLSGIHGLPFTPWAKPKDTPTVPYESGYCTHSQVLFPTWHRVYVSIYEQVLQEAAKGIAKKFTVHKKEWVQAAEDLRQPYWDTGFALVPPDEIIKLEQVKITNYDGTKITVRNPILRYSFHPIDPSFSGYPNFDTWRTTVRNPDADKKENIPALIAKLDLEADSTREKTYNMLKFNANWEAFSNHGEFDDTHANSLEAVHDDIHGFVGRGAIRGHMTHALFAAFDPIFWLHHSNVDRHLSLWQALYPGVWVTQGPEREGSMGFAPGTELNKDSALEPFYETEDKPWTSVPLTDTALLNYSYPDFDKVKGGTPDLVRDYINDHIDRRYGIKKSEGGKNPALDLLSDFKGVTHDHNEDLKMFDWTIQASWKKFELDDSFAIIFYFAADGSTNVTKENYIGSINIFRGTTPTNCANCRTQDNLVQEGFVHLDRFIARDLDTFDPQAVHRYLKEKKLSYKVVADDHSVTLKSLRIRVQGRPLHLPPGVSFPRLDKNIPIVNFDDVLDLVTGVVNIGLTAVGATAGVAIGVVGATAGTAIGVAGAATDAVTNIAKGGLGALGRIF
Assay: Inhibition of mushroom tyrosinase

| IC50 [nM] | Structure (SMILES) |
| --- | --- |
| 1.4 | COc1c(O)cc2occ(-c3ccc(O)cc3)c(=O)c2c1O [Tectorigenin] |
| 2.6 | COc1c(O[C@@H]2O[C@H](CO)[C@@H](O)[C@H](O)[C@H]2O)cc2occ(-c3ccc(O)cc3)c(=O)c2c1O [CHEBI:9428] |
